Assay results from US10906977B2, “Enhancing the therapeutic activity of immune checkpoint inhibitor” (Maine Medical Center Research Institute, priority 2016, dated 2021).

Columns and labels:
YAP = test: Nuclear YAP in endothelial cells attached to collagen peptides; format: cell-based, human
Protocol: (§1) Whole cell and CAM tissue lysates were collected in RIPA buffer supplemented with 1× protease inhibitor and 1× phosphatase inhibitor and were run on polyacrylamide gels using denaturing conditions. Prior to loading the gels, 6× sample buffer was added to each of the lysates (final concentration 1×) and boiled for five minutes. Twenty to 50 μg of total protein were loaded into each lane. […] Gels were run at 60 volts (v) until the dye front passed through the stacking gel, and then the voltage was increased to 100V for the remainder of the separation. Precision Plus protein standards (Bio-Rad) were used to visualize migration. Protein was transferred to nitrocellulose membranes using a wet tank system and blocked for 1 h using 10% non-fat dried milk in tris-buffered saline with 0.01% Tween-20 (TBS-T). […] Membranes were washed 3 times in TBS-T for five minutes. Blots were then incubated with HRP conjugated secondary antibodies (1:15000) in 1% non-fat milk in TBS-T for 1 h. Membranes were washed a second time as indicated above and exposed to chemiluminecent substrate for three minutes prior to exposure to autoradiography film in a dark room. Western blot bands were quantified using Image J software based on pixel intensity.

P38MAPK [1] = test: Phosphorylated P38MAPK in CAM tissue lysates (Western blot); format: in vivo, chick; conditions: peptide treated CAMs; FIG. 6B
Protocol: The chick chorioallantoic membrane (CAM) assays were carried out with some modifications (19). […] Filter discs either non-treated (inflammation assays) pretreated (angiogenesis assays) with cortisone acetate (3.0 mg/ml) containing RPMI only or FGF-2 (40 ng). CAMs were either non-treated or treated topically with Mab XL313, XL166 or a non-specific control antibody (10 μg/embryo every 24 h for three consecutive treatments). […] At the end of the incubation period the embryos were sacrificed and the CAM tissues were analyzed. Angiogenesis was quantified by counting the number of angiogenic branching blood vessels within the area of the filter disc. The angiogenic index was determined by subtracting the mean number of blood vessel branch points from untreated CAMs from each experimental condition. Eight to twelve embryos were used per condition and experiments were repeated at least three times.
Whole cell and CAM tissue lysates were collected in RIPA buffer supplemented with 1× protease inhibitor and 1× phosphatase inhibitor and were run on polyacrylamide gels using denaturing conditions. Prior to loading the gels, 6× sample buffer was added to each of the lysates (final concentration 1×) and boiled for five minutes. Twenty to 50 μg of total protein were loaded into each lane. […] Western blot bands were quantified using Image J software based on pixel intensity.

P38MAPK [2] = test: Phosphorylated P38MAPK in HUVECs attached to collagen peptides (Western blot); format: cell-based, human; conditions: cells attached to peptide; FIG. 6D
Protocol: (§2) Endothelial cells (HUVECs or HRMVECs) were incubated in serum free media with 1 mM MgCl2, 0.2 mM MnCl2 in the presence of a Src inhibitor, PP2, (10 μM) a P38MAPK inhibitor, SB202190 (10 μM) or vehicle only (DMSO) for 10 min at 37° C. Treated cells were then seeded on to immobilized P-1 and P-2 and lysates were collected at 15 min.
as §1, with “Membranes were washed a second time as indicated above and exposed to chemiluminecent substrate for three minutes prior to exposure to autoradiography film in a dark room.” left out

[3] = tested on: endothelial cells (HUVECs); test: Actin stress fiber formation in endothelial cells attached to collagen peptides; format: cell-based, human; conditions: FIG. 7G
Protocol: CAMs examined for accumulation of granulation tissue were harvested, fixed in 4% PFA and paraffin embedded and sectioned (4 μm) and stained with Giemsa. CAM tissues analyzed via immunofluorescence were harvested, embedded with OCT, snap frozen and sectioned ([…]). Frozen sections were fixed in 50% methanol/50% acetone, air dried and blocked with 2.5% BSA for 1 h at 37° C. For expression of the XL313 and XL166 epitopes as well as monocyte/macrophages, FGF-2 stimulated CAM tissues were stained with Mabs XL313, XL166 (50 μg/ml) or KUL1 (1:250) and then incubated with Alexa-488 labeled secondary antibodies (1:2000 dilution). Co-staining of monocytes/macrophages and the Mab XL313 reactive epitope in FGF-2 stimulated CAMs was performed by sequential staining by first probing with KUL1 (1:250) and then with a biotinconjugated Mab XL313 (50 μg/ml), and with secondary antibodies Alexa-488 and streptavidin Alexa-594 (1:2000) respectively. Using a similar strategy, sections of RGD peptide-treated CAM tissues were analyzed for phosphorylated-P38MAPK in angiogenic vessels by co-incubation of anti-phospho-P38MAPK (1:50) and anti-vWf (1:500) antibodies. […] Cells were allowed to attach for 15, 30, or 60 min in the absence of serum and were fixed with 4% PFA. Fixed cells were washed and blocked with 2.5% BSA and stained with anti-YAP (1:200) and phalloidin (1:500). […]

[4] = tested on: endothelial cells transduced with YAP specific or non-specific shRNAs; test: Growth of shRNA transduced endothelial cells with soluble RGD peptides; format: cell-based, human
Protocol: HUVECs (WT, shYAP1 or control transfected) or HRMVECs were plated at 2,000 cells per well with complete EGM-2 media containing 2.0% FBS in the absence or presence of P-1, P-2 or P-C (100 ng/ml) and allowed to grow for 24 hours. Cell growth was monitored using a BrdU or MMT assay kits according to manufacturer's instructions. All assays were completed at least three times in triplicate wells.
Raw cells were transfected with 1 μg of HuSH shRNA plasmids for collagen type I, alpha 2 using Amaxa cell line nucleofector kit V (program #T024). Constructs expressing 21-nucleotide short hairpin RNAs (shRNA) targeting human YAP (shYAP) or non-targeting control (shNT, Sigma-Aldrich, SHC002) were used. Humantargeting shYAP1 lentiviral shRNA was obtained from the Thermo Scientific RNAi consortium (TRCN0000107625). Constructs were packaged into lentivirus, pseudotyped with the vesicular stomatitis virus glycoprotein. Transduction was performed by incubating cells with lentivirus, and stably transduced cells were subsequently used for studies. All cell lines were verified by morphology and mouse and human YAP-specific PCR. […] Endothelial cells were certified mycoplasma-negative by PCR (Lonza), and primary cell cultures were used within the indicated passage numbers. Cells were transduced and selected using puromycin.

[5] = tested on: chick chorioallantoic membrane (CAM); test: Chick CAM angiogenesis induced by soluble RGD collagen peptides; format: in vivo
Protocol: The chick chorioallantoic membrane (CAM) assays were carried out with some modifications (19). For all experiments CAMs of 10-day-old chick embryos obtained from Charles River (North Franklin, Conn.) were separated from the shell membrane. Filter discs either non-treated (inflammation assays) pretreated (angiogenesis assays) with cortisone acetate (3.0 mg/ml) containing RPMI only or FGF-2 (40 ng). CAMs were either non-treated or treated topically with Mab XL313, XL166 or a non-specific control antibody (10 μg/embryo every 24 h for three consecutive treatments). […] At the end of the incubation period the embryos were sacrificed and the CAM tissues were analyzed. Angiogenesis was quantified by counting the number of angiogenic branching blood vessels within the area of the filter disc. The angiogenic index was determined by subtracting the mean number of blood vessel branch points from untreated CAMs from each experimental condition. Eight to twelve embryos were used per condition and experiments were repeated at least three times.

β3-integrin = biological target: T1, β3-integrin (Homo sapiens, UniProt P05106+P06756); test: β3-integrin phosphorylation in endothelial cells attached to collagen peptides (Western blot); format: cell-based; conditions: absence of growth factors; FIG. 7C
T1 construct: endogenous in cells; host or cells: HUVEC
Protocol: as §2
as §1, with “Membranes were washed a second time as indicated above and exposed to chemiluminecent substrate for three minutes prior to exposure to autoradiography film in a dark room.” left out

T1 sequence (P05106 27-788): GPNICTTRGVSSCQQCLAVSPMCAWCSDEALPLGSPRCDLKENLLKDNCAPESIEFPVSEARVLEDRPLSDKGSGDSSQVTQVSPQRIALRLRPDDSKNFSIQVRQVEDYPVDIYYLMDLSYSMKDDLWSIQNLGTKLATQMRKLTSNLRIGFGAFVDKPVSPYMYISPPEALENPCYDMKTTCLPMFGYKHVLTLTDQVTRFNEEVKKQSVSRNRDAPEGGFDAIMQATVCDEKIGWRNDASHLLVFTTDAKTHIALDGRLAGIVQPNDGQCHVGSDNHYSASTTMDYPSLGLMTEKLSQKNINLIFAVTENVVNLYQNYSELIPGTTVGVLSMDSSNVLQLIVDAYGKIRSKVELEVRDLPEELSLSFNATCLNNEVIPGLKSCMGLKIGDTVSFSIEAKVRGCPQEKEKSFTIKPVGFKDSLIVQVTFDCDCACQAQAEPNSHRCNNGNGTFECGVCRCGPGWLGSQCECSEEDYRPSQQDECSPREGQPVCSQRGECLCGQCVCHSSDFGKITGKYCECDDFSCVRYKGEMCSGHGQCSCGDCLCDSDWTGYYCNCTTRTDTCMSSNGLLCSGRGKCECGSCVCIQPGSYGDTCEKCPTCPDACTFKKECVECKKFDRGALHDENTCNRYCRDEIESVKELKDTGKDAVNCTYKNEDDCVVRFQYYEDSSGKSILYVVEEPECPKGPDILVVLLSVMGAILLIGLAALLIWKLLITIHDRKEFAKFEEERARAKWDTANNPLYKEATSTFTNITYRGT
T1 sequence (P06756 31-889 limits assumed): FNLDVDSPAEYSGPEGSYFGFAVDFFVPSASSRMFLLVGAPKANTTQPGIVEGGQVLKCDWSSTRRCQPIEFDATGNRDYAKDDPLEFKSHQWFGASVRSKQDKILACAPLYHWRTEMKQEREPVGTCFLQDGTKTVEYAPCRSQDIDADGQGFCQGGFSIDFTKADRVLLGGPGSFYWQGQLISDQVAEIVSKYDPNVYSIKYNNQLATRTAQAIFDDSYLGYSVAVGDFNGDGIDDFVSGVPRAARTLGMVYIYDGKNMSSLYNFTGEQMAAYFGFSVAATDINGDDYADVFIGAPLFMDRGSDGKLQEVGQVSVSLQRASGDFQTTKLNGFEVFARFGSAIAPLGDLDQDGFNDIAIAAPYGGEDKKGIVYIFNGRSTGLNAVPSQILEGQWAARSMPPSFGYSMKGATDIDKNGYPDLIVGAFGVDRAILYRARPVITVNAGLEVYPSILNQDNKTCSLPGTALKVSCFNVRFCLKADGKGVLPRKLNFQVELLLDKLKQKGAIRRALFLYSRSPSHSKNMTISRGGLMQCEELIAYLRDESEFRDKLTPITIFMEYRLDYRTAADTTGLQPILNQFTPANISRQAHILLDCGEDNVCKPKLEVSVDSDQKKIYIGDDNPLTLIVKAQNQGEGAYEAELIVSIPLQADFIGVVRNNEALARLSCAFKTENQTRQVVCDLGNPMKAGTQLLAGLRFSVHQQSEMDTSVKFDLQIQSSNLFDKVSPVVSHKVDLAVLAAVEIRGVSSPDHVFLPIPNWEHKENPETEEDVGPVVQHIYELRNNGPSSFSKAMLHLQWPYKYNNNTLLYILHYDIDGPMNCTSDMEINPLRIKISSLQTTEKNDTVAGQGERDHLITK
T1 sequence (P06756 891-1048 partner limits assumed): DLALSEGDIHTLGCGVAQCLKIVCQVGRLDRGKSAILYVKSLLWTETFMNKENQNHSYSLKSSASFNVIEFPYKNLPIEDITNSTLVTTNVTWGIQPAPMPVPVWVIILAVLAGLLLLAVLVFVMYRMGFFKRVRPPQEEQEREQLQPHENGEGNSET

## CQGPRGDKGEC [Mab P-2]
YAP; by 15 minutes, FIG. 8A
  nuclear localized YAP (staining) as compared to P-1: enhanced level of nuclear localized YAP
YAP; cells attached to peptide, FIG. 8B
  increase of nuclear YAP as compared to P-1 (Western blot): approximately 2 fold
P38MAPK [1]
  increase in phosphorylation of P38MAPK in CAM tissues as compared to controls: 4 fold
P38MAPK [2]
  phosphorylation of P38MAPK in HUVECs, as compared to P-1: enhanced phosphorylation of P38MAPK
[3]
  actin stress fiber formation as compared to P-1: accelerated actin stress fiber formation
[4]; YAP specific shRNA, FIG. 8H
  growth of endothelial cells in which YAP was knocked down: failed to induce growth
[4]; non-specific shRNA, FIG. 8G
  growth of control transduced endothelial cells with soluble peptide: enhanced growth
[5]; FIG. 5B
  dose dependent induction of CAM angiogenesis: dose dependently enhanced angiogenesis
  dose of maximum induction of angiogenesis: 100 ng/CAM
[5]; soluble peptide, FIG. 5C
  induction of CAM angiogenesis as compared to no treatment: induced angiogenesis
β3-integrin
  increase of β3 phosphorylation as compared to P-1: over 3 fold
